Measured values from ChEMBL document CHEMBL3727353, “Small-molecule choline kinase inhibitors as anti-cancer therapeutics” (2011).

What was measured:
[1] = AUC (0 to infinity) in Balbc mouse at 5 mg/kg, iv by LC-MS/MS analysis; type: ADME, organism-based; set-up: dose 5 mg/kg, time infinity, route intravenous; conditions: BALB/c, in vivo
[2] = Clearance in Balbc mouse at 5 mg/kg, iv by LC-MS/MS analysis; type: ADME, organism-based; conditions: BALB/c, in vivo
[3] = Terminal half life in Balbc mouse at 5 mg/kg, iv by LC-MS/MS analysis; type: ADME, organism-based; conditions: BALB/c, in vivo, read-out: beta t1/2 (converted)
[4] = test system: K562; experiment: Antiproliferative activity against human K562 cells after 72 hrs by alamar blue assay; type: functional, cell-based; conditions: K562, 72 h
[5] = test system: MDA-MB-231; experiment: Antiproliferative activity against human MDA-MB-231 cells after 72 hrs by alamar blue assay; type: functional, cell-based; conditions: MDA-MB-231, 72 h

Row | Structure (SMILES) | AUC(0-inf) [1] | clearance [2] | half-life [3] | IC50 [4] | IC50 [5]
1 | CCOc1ccc(-c2nnc(SCC(=O)Nc3cc(C)cc(C)c3)[nH]2)cc1F | 1290 ng·h/mL | 129 mL/min/kg | 9 min | – | –
2 | COc1ccc(-c2nnc(SCC(=O)Nc3ccc(F)cc3F)[nH]2)cc1 | – | – | – | 37 µM | 78.7 µM
